Some test systems named below: XF 498 CNS; P388/ADR leukemia; MCF7 breast; HOP-18 NSCLC; P388 leukemia; SN12K1 renal; RXF-631 renal; HS 578T breast.
Common to all, as to assay: NCI tumour cell line growth inhibition, 48 h

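Assay format: 96-well plates, 48-hour exposure. Abbreviation: GI50, concentration required for 50% inhibition of growth. TGI: concentration producing complete growth inhibition.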 Where only a bound is given, the exact number is not on record here.

In the assay with XF 498 CNS, `COc1cc2ccc1-c1cc(ccc1O)CC1c3cc4c(cc3CCN1C)Oc1c(OC)cc3c(c1O4)C(C2)N(C)CC3` (stereo unspecified) displayed a TGI of 3.44 µM.
In the case of `Oc1cc(O)cc(/C=C/c2ccc(O)c(O)c2)c1`, the TGI in the assay on P388/ADR leukemia is > 67.5 µM; in the assay with MCF7 breast, > 56.1 µM; in the assay on HOP-18 NSCLC it was > 100 µM; in the assay with P388 leukemia it was > 66.9 µM; with SN12K1 renal, 18.3 µM.
In the case of `CN(C)c1ccc(C2CC(=O)C(C#N)=C(c3ccccc3)NN2C)cc1` (stereo unspecified), the results for the TGI in the assay with RXF-631 renal, in the assay on HOP-18 NSCLC and with XF 498 CNS were > 100 µM, > 100 µM and 38.3 µM, respectively.
For `CN(C)c1ccc2nc3c(C(=O)O)cc(=O)c(O)c-3oc2c1`, the results for the TGI with MCF7 breast and in the assay on HS 578T breast were 56.5 µM and > 100 µM, respectively.
For `C[n+]1cccc(/C=C/c2ccc3cccc(O)c3n2)c1`, in that order: > 100 µM and > 100 µM.
For `CC(C)CNc1nc(N)[nH]c(=O)c1NC=O`, in that order: > 100 µM and > 100 µM.
For `N=C(N)c1ccc(-c2ccc(-c3ccc(Cl)cn3)s2)cc1`, in the assay with HS 578T breast, the GI50 is 2.05 µM and the TGI was determined as 5.35 µM.
Regarding `CCN(CC)Cc1ccc2cccnc2c1O`, the TGI in the assay on MCF7 breast and in the assay with HS 578T breast was > 100 µM each time.
As to `Cc1cc(=O)[nH]c(NN2C(Cl)C(=O)C2c2cccc([N+](=O)[O-])c2)n1` (stereo unspecified), the TGI with HOP-18 NSCLC worked out at 78 µM.
On to `COc1cc2c(cc1OC)C(Cl)C(c1ccc(Cl)cc1)=C2Cl` (stereo unspecified), for which the TGI with RXF-631 renal amounted to 51.7 µM; in the assay on HOP-18 NSCLC it was 31.7 µM; with XF 498 CNS, 9.09 µM.
`C[C@H]1CCC/C=C/[C@@H]2C[C@H](O)C[C@H]2[C@H](O)[C@@H](S(=O)CCN)CC(=O)O1` (stereo partly specified): the GI50 in the assay with MCF7 breast is 0.0316 µM. In the assay on HS 578T breast, the GI50 is 0.207 µM and the TGI is > 100 µM.
For the compound `c1ccc2c[n+](CCCCCCCCCC[n+]3ccc4ccccc4c3)ccc2c1`, the TGI in the assay on MCF7 breast and in the assay with HS 578T breast was > 10 µM throughout.
Take `CC[C@H](Nc1nc(N)nc(N)c1Cl)c1nc2cccc(NCc3ccc(C(=O)NO)cc3)c2c(=O)n1-c1ccccc1`: in the assay with MCF7 breast, the GI50 is 2.25 µM and the TGI came out at 7.2 µM. In the assay on HS 578T breast, the GI50 is 2.62 µM and the TGI worked out at 10.9 µM.
For the compound `O=C(O)c1ccccn1`, the TGI in the assay on MCF7 breast and in the assay on HS 578T breast was > 100 µM each time.
Turning to `O=C1c2ccccc2C(=O)c2c(NCCNC(=O)C3CCCN3)ccc(NCCNC(=O)C3CCCN3)c21` (stereo unspecified), the TGI in the assay with MCF7 breast and in the assay with HS 578T breast was > 100 µM in each case.
Take `CN(C)CCNC(=O)c1cccc2nc3c4ccccc4c4ccccc4c3nc12`: the figures for the TGI with MCF7 breast, with HOP-18 NSCLC and with XF 498 CNS were 3.47 µM, 20.1 µM and 9.06 µM, respectively.
For `CN(C)[C@@H]1C(=O)C(C(=O)NCNCCCC(=O)O)=C(O)[C@@]2(O)C(=O)C3=C(O)c4c(O)cccc4[C@@](C)(O)[C@H]3C[C@@H]12`, the TGI in the assay with HOP-18 NSCLC and in the assay on XF 498 CNS was > 100 µM throughout.
